How the values were obtained:
Details in all cases: 72 h
U2OS [1] = assay: FV IC50 (concentration giving fractional viability 0.5); higher = less potent killing
Experimental: (§1)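 U2OS cells treated with full dose titrations of drug; live and dead cells counted by STACK microscopy (mKate2 nuclei, SYTOX Green) at 72 h, biological triplicates. GR and FV dose responses were fitted with 4-parameter logistic models (GR lower bound -1). GRADE (0-100) is the rescaled angle of a linear fit of FV versus GR at doses with GR >= 0, giving the percentage of the response due to cell death.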

U2OS [2] = assay: drug GRADE (percent of response due to cell death) (% (0-100)); higher = more death-driven response
Experimental: as §1

U2OS [3] = assay: GR50 (concentration giving GR = 0.5)
Experimental: as §1

U2OS [4] = assay: normalized growth rate inhibition value (GR) relative to untreated cells (GR value (dimensionless, 1 = untreated growth)); higher = less growth inhibition
Experimental: (§2)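 U2OS::Nuc-mKate2 cells seeded in 96-well plates and treated with eight- to ten-point half-log or log dilutions of drug in the presence of 50 nM SYTOX Green. Live (mKate2+) and dead (SYTOX+) cells were counted by IncuCyte STACK live-cell microscopy at 72 h; biological triplicates. GR is the normalised growth-rate inhibition value (Hafner 2016; 1 = untreated growth, <0 = population shrinking). FV is live/(live+dead) cells, not normalised.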

U2OS [5] = assay: fractional viability (live cells / total cells); higher = less cell death
Experimental: as §2

U2OS [6] = assay: GRmin (fitted minimal GR value at highest effect) (GR value (dimensionless)); higher = less efficacious
Experimental: as §1

Cc1cc(Nc2ncc(Cl)c(Nc3ccccc3S(=O)(=O)C(C)C)n2)c(OC(C)C)cc1C1CCNCC1 [Ceritinib]
Details | FV IC50 [nM] | GR50 [µM] | drug GRADE
U2OS [1] | 5270 | – | –
U2OS [2] | – | – | 7.14
U2OS [3] | – | 3.32 | –

Details | fractional viability, U2OS [5] | normalized growth rate inhibition value, U2OS [4]
0.00100578 µM | 0.991 | 1.05
0.00317827 µM | 0.989 | 1.06
0.0100433 µM | 0.992 | 1.15
0.0317369 µM | 0.988 | 1.13
0.100289 µM | 0.989 | 1.02
0.316912 µM | 0.984 | 0.964
1.00144 µM | 0.98 | 0.904
3.16456 µM | 0.943 | 0.588
10 µM | 0 | -1

CC[C@]1(O)C[C@H]2CN(CCc3c([nH]c4ccccc34)[C@@](C(=O)OC)(c3cc4c(cc3OC)N(C=O)[C@H]3[C@@](O)(C(=O)OC)[C@H](OC(C)=O)[C@]5(CC)C=CCN6CC[C@]43[C@@H]65)C2)C1 [Vincristine]
Details | FV IC50 [nM] | GRmin | drug GRADE
U2OS [1] | 10.7 | – | –
U2OS [2] | – | – | 67.6
U2OS [6] | – | 0.000271 | –

Details | fractional viability, 0.00316 µM | fractional viability, 0.0316 µM | fractional viability, 0.316 µM | fractional viability, 3.16 µM | fractional viability, 31.6 µM | normalized growth rate inhibition value, 0.00316 µM | normalized growth rate inhibition value, 0.0316 µM | normalized growth rate inhibition value, 0.316 µM | normalized growth rate inhibition value, 3.16 µM | normalized growth rate inhibition value, 31.6 µM
U2OS [4] | – | – | – | – | – | 0.251 | 0.0808 | 0.0568 | -0.0172 | 0.0544
U2OS [5] | 0.548 | 0.426 | 0.472 | 0.427 | 0.415 | – | – | – | – | –

CC(=O)O[C@H]1C(=O)[C@@]2(C)[C@H]([C@H](OC(=O)c3ccccc3)[C@]3(O)C[C@H](OC(=O)[C@H](O)[C@@H](NC(=O)c4ccccc4)c4ccccc4)C(C)=C1C3(C)C)[C@]1(OC(C)=O)CO[C@@H]1C[C@@H]2O [Taxol]
Details | FV IC50 [nM] | GR50 [µM] | GRmin | drug GRADE
U2OS [1] | 577 | – | – | –
U2OS [2] | – | – | – | 75.6
U2OS [3] | – | 0.0907 | – | –
U2OS [6] | – | – | 0.104 | –

Details | fractional viability, U2OS [5] | normalized growth rate inhibition value, U2OS [4]
0.000100578 µM | 0.991 | 1.13
0.000317827 µM | 0.991 | 1.2
0.00100433 µM | 0.991 | 1.23
0.00317369 µM | 0.988 | 1.14
0.0100289 µM | 0.98 | 1.06
0.0316912 µM | 0.897 | 0.813
0.100144 µM | 0.759 | 0.461
0.316456 µM | 0.591 | 0.211
1 µM | 0.44 | 0.0877

CCNC(=O)c1noc(-c2cc(C(C)C)c(O)cc2O)c1-c1ccc(CN2CCOCC2)cc1 [Luminespib]
Details | FV IC50 [nM] | GR50 [µM] | GRmin | drug GRADE
U2OS [1] | 18.6 | – | – | –
U2OS [2] | – | – | – | 17.6
U2OS [3] | – | 0.00564 | – | –
U2OS [6] | – | – | -0.319 | –

Details | fractional viability, U2OS [5] | normalized growth rate inhibition value, U2OS [4]
0.000100578 µM | 0.99 | 0.869
0.000317827 µM | 0.99 | 0.878
0.00100433 µM | 0.989 | 0.876
0.00317369 µM | 0.983 | 0.809
0.0100289 µM | 0.844 | -0.00384
0.0316912 µM | 0.419 | -0.331
0.100144 µM | 0.436 | -0.365
0.316456 µM | 0.464 | -0.239
1 µM | 0.442 | -0.331

O=C(Nc1ccc([N+](=O)[O-])cc1Cl)c1cc(Cl)ccc1O [Nicolsamide]
Details | FV IC50 [nM] | GR50 [µM] | GRmin | drug GRADE
U2OS [1] | 803 | – | – | –
U2OS [2] | – | – | – | 29.4
U2OS [3] | – | 0.347 | – | –
U2OS [6] | – | – | -0.791 | –

Details | fractional viability, U2OS [5] | normalized growth rate inhibition value, U2OS [4]
0.01 µM | 0.98 | 0.975
0.0316 µM | 0.975 | 1.01
0.1 µM | 0.979 | 0.934
0.316 µM | 0.942 | 0.557
1 µM | 0.33 | -0.319
3.16 µM | 0.0377 | -0.722
10 µM | 0.0138 | -0.81
31.6 µM | 0.0218 | -0.763

CN(C)CC[C@H](CSc1ccccc1)Nc1ccc(S(=O)(=O)NC(=O)c2ccc(N3CCN(Cc4ccccc4-c4ccc(Cl)cc4)CC3)cc2)cc1[N+](=O)[O-] [ABT-737]
Details | FV IC50 [nM] | GR50 [µM] | drug GRADE
U2OS [1] | 6860 | – | –
U2OS [2] | – | – | 65.6
U2OS [3] | – | 2.13 | –

Details | fractional viability, U2OS [5] | normalized growth rate inhibition value, U2OS [4]
0.00100578 µM | 0.986 | 0.92
0.00317827 µM | 0.984 | 1.02
0.0100433 µM | 0.983 | 1.02
0.0317369 µM | 0.982 | 0.95
0.100289 µM | 0.954 | 0.94
0.316912 µM | 0.913 | 0.817
1.00144 µM | 0.82 | 0.744
3.16456 µM | 0.684 | 0.358
10 µM | 0.407 | -0.162

CC(C)Oc1ccc(-c2ccccc2)cc1-n1c(CN2CCN(C(=O)COc3ccc(Cl)cc3)CC2)nc2ccccc2c1=O [Erastin 2]
Details | FV IC50 [nM] | GR50 [µM] | GRmin | drug GRADE
U2OS [1] | 659 | – | – | –
U2OS [2] | – | – | – | 24.1
U2OS [3] | – | 0.231 | – | –
U2OS [6] | – | – | -0.774 | –

Details | fractional viability, U2OS [5] | normalized growth rate inhibition value, U2OS [4]
0.01 µM | 0.97 | 0.949
0.0316 µM | 0.973 | 0.863
0.1 µM | 0.952 | 0.703
0.316 µM | 0.886 | 0.419
1 µM | 0.233 | -0.133
3.16 µM | 0.0768 | -0.515
10 µM | 0.0609 | -0.627
31.6 µM | 0.0186 | -0.776

CC[C@@H]1C(=O)N(C)c2cnc(Nc3ccc(C(=O)NC4CCN(C)CC4)cc3OC)nc2N1C1CCCC1 [BI2536]
Details | FV IC50 [nM] | drug GRADE
U2OS [1] | 27.5 | –
U2OS [2] | – | 20.9

Details | fractional viability, U2OS [5] | normalized growth rate inhibition value, U2OS [4]
0.00316 µM | 0.517 | 0.0188
0.01 µM | 0.45 | -0.371
0.0316 µM | 0.485 | -0.116
0.1 µM | 0.413 | -0.354
0.316 µM | 0.388 | -0.184
1 µM | 0.323 | -0.415
3.16 µM | 0.168 | -0.378
10 µM | 0.0141 | -0.876
31.6 µM | 0.00423 | -0.822

From the supplement of paper PMC7394473
